The text below walks through data of patent US4189607A, “Anilionotropone derivatives” (priority 1979, dated 1980).

Where a name gives a salt, the structure may show the parent alone.

One data set concerns rat paw edema. Nature of the data set: Anti-inflammatory activity, carrageenin rat paw edema (Winter et al). In kind it is in vivo, Male Wistar strain rats. Particulars: p.o., four hours after injection of carrageenin. Here is the method: Experiment 1: Anti-inflammatory activity
Anti-inflammatory activity was evaluated by the method of rat paw edema (Winter et al, J. Pharmacol. Exp. Ther., 141, 369 (1963) ). Six male Wistar strain rats were used in each group and the volume of each paw was measured four hours after injection of carrageenin.
For orientation: The carrageenan paw model is a standard test of acute inflammation.

A short description of data set [1]: Analgesic activity, method of Randall-Selitto with slight modification. The note with it: 25 mg/kg orally, vs Cpd. 3 at 100 mg/kg. It is filed as in vivo, Male Wistar strain rats. The procedure:
Experiment 2: Analgesic activity
Male Wistar strain rats in groups of six each were used for the evaluation of analgesic activity by the method of Randall-Selitto (Arch. Intern. Pharmacodyn., 111, 409 (1957) ) with slight modification. In a graph where the load was plotted on the ordinate and the time was plotted on the abscissa, the curve obtained when Cpd. 1 was orally administered in a dose of 25 mg/kg was substantially in agreement with the curve obtained when Cpd. 3 was orally administered in a dose of 100 mg/kg. […] 1 was administered in a dose of 50 mg/kg and the Cpd 3 was administered in a dose of 200 mg/kg.

The next data set concerns acetic acid writhing. Description: Analgesic activity, acetic acid writhing test (Koster et al). Particulars: p.o. It is filed as in vivo, Male ddY strain mice. An excerpt:
Experiment 3: Analgesic activity
Male ddY strain mice in groups of ten each were used for evaluation of analgesic activity by the acetic acid writhing test (Koster et al, Federation Proc., 18, 412 (1959). The results are shown in Tables 3 and 4.
Background: In writhing tests, fewer writhes than in controls are read as antinociception.

Another data set relates to gastric lesions. Nature of the data set: Gastric ulcerogenicity (gastric lesions). It is filed as in vivo, Male Wistar strain rats. The note with it: p.o., 18 hours fasting prior to autopsy. The source says:
Experiment 4: Gastric ulcerogenicity […] The gastric lesions induced was expressed as incidence (number of rats with gastric lesions/number of the test rats) and lesion index (sum of areas damaged).

Setting [2] is: Table 6, 100 + 200 mg/kg, 200 mg/kg.

Consider `CC(C(=O)O)c1ccc(Nc2cccccc2=O)cc1` (centres unmarked) [Cpd. 1, 2-[p-(2-troponylamino)phenyl]propionic acid], for which the “Inhibition (%)” value with rat paw edema (Table 1, 25 mg/kg) came to 56.8%; in the data set on rat paw edema (Table 1, 50 mg/kg), 50.9%; with rat paw edema (Table 1, 100 mg/kg), 61.0%; in the data set with acetic acid writhing (Table 3, 100 mg/kg), 54.8%. In addition, in data set [1], the “Load-time curve compared with Cpd. 3” value is “substantially in agreement with the curve obtained when Cpd. 3 was orally administered in a dose of 100 mg/kg”. Also, the “Incidence (number of rats with gastric lesions/number of the test rats)” value with gastric lesions (Table 5, 25 + 50 mg/kg) was 0/6; in the data set on gastric lesions (Table 5, 50 + 100 mg/kg), 1/6; with gastric lesions (Table 5, 100 + 200 mg/kg), 4/6. In addition, the “Lesion index (sum of areas damaged)” value in the data set with gastric lesions (Table 5, 25 + 50 mg/kg) came to 0 mm^2; in the data set on gastric lesions (Table 5, 50 + 100 mg/kg), 0.02 ± 0.017 mm^2; in the data set on gastric lesions (Table 5, 100 + 200 mg/kg), 0.52 ± 0.17 mm^2.

Regarding `CC(C(=O)O)c1cccc(Nc2cccccc2=O)c1` (centres unmarked) [Cpd. 2, 2-[m-(2-troponylamino)phenyl]propionic acid], the “Inhibition (%)” value in the data set with rat paw edema (Table 2, 100 mg/kg, 100 mg/kg) is listed as 43.0%; with acetic acid writhing (Table 4, 100 mg/kg), 31.2%. For the same molecule, in the data set on gastric lesions (setting [2]), the “Incidence (number of rats with gastric lesions/number of the test rats)” value was 0/6. Further, the “Lesion index (sum of areas damaged)” value with gastric lesions (setting [2]) is given as 0 mm^2.

For the molecule `CC(C(=O)O)c1cccc(Nc2cccccc2=O)c1` (centres unmarked) [Cpd. 2-Ca salt, calcium 2-[m-(2-troponylamino)phenyl]propionate], in the data set with rat paw edema (Table 2, 100 mg/kg, 100 mg/kg), the “Inhibition (%)” value was found to be 43.2%. For the same molecule, the “Inhibition (%)” value in the data set on acetic acid writhing (Table 4, 100 mg/kg) was 31.2%. Further, in the data set with gastric lesions (setting [2]), the “Incidence (number of rats with gastric lesions/number of the test rats)” value was 2/6 and the “Lesion index (sum of areas damaged)” value worked out at 0.12 ± 0.10 mm^2.

With `CCCCC1C(=O)N(c2ccccc2)N(c2ccccc2)C1=O` [Cpd. 3, phenylbutazone, reference compound], the “Inhibition (%)” value in the data set on rat paw edema (Table 1, 25 mg/kg) was found to be 22.4%; with rat paw edema (Table 1, 50 mg/kg), 34.7%; in the data set on rat paw edema (Table 1, 100 mg/kg) it was 54.5%; with rat paw edema (Table 2, 100 mg/kg), 32.5%; in the data set with acetic acid writhing (Table 3, 200 mg/kg) it was 18.5%; in the data set on acetic acid writhing (Table 4, 100 mg/kg), 10.7%. Also, the “Lesion index (sum of areas damaged)” value is 0.02 ± 0.014 mm^2 with gastric lesions (Table 5, 25 + 50 mg/kg); 1.43 ± 0.43 mm^2 with gastric lesions (Table 5, 50 + 100 mg/kg); 6.82 ± 1.40 mm^2 in the data set on gastric lesions (Table 5, 100 + 200 mg/kg); 7.70 ±3.23 mm^2 in the data set with gastric lesions (Table 6, 100 + 200 mg/kg).
